Measurements: ChEMBL document CHEMBL1201862, “PubChem BioAssay data set” (2004)
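In this assay, cells in 96-well plates receive the compound at five concentrations for 48 hours. Endpoints are linearly interpolated between the surrounding concentrations. Here, GI50 denotes the concentration required for 50% inhibition of growth.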 Activity calls are given as the source filed them. Cut-off read from the data, not from the text of the source: active = GI50 up to about 1.1 µM and inactive = higher.

Tests used:
Test in all cases: inhibition of tumour cell growth, NCI panel, 48 h
HT-29 = system: HT-29
HCT-116 = system: HCT-116
RPMI-8226 = system: RPMI-8226
SNB-19 = system: SNB-19
EKVX = system: EKVX
MDA-MB-435 = system: MDA-MB-435
KM12 = system: KM12
HOP-62 = system: HOP-62
A549 = system: A549
CCRF-CEM = system: CCRF-CEM
NCI-H226 = system: NCI-H226
HOP-92 = system: HOP-92
OVCAR-8 = system: OVCAR-8
HCC 2998 = system: HCC 2998
T47D = system: T47D
SK-MEL-28 = system: SK-MEL-28
NCI-H460 = system: NCI-H460
OVCAR-3 = system: OVCAR-3
SK-MEL-2 = system: SK-MEL-2

Measured: GI50

C#CCN(CC#C)C(=O)C(=O)c1c[nH]c2ccc(OC)cc12
inactive: HT-29 12.5 µM | HCT-116 17.5 µM | RPMI-8226 10.6 µM | SNB-19 16.1 µM | EKVX 32.4 µM | MDA-MB-435 18.5 µM | KM12 14 µM | HOP-62 16.7 µM | A549 25.7 µM | CCRF-CEM 19.7 µM | NCI-H226 18.2 µM | HOP-92 14.2 µM | OVCAR-8 22 µM | HCC 2998 16.9 µM | T47D 24.2 µM | SK-MEL-28 16.1 µM | NCI-H460 15 µM

O=C(O)c1ccc(OCc2ccccc2)c(Cl)c1
inactive: HT-29 > 100 µM | HCT-116 > 100 µM | RPMI-8226 > 100 µM | SNB-19 > 100 µM | EKVX > 100 µM | MDA-MB-435 80.5 µM | KM12 30.3 µM | HOP-62 > 100 µM | A549 > 100 µM | CCRF-CEM > 100 µM | NCI-H226 > 100 µM | HOP-92 > 100 µM | OVCAR-8 > 100 µM | OVCAR-3 > 100 µM | T47D > 100 µM | SK-MEL-28 > 100 µM | NCI-H460 > 100 µM | SK-MEL-2 > 100 µM

CCOC(=O)C(=CNc1ccc(S(N)(=O)=O)cc1)C(=O)OCC
inactive: HT-29 > 100 µM | HCT-116 > 100 µM | RPMI-8226 > 100 µM | SNB-19 > 100 µM | EKVX > 100 µM | MDA-MB-435 > 100 µM | HOP-62 > 100 µM | A549 > 100 µM | CCRF-CEM > 100 µM | NCI-H226 > 100 µM | HOP-92 > 100 µM | OVCAR-8 > 100 µM | OVCAR-3 > 100 µM | HCC 2998 > 100 µM | T47D > 100 µM | SK-MEL-28 > 100 µM | NCI-H460 > 100 µM | SK-MEL-2 > 100 µM

Cn1cco/c1=N/c1ccc(Cl)c(Cl)c1
inactive: HT-29 > 10 µM | HCT-116 > 10 µM | RPMI-8226 > 10 µM | SNB-19 > 10 µM | EKVX > 10 µM | MDA-MB-435 > 10 µM | KM12 > 10 µM | HOP-62 > 10 µM | A549 > 10 µM | CCRF-CEM > 10 µM | NCI-H226 > 10 µM | HOP-92 > 10 µM | OVCAR-8 > 10 µM | OVCAR-3 > 10 µM | HCC 2998 > 10 µM | T47D > 10 µM | SK-MEL-28 > 10 µM | NCI-H460 > 10 µM

COc1ccc(C(=O)C(Br)C(Br)C(=O)O)cc1 (stereo not given)
inactive: HT-29 15.6 µM | HCT-116 20.8 µM | RPMI-8226 20.4 µM | SNB-19 83.8 µM | EKVX 53.6 µM | MDA-MB-435 36.1 µM | KM12 52.1 µM | HOP-62 36.6 µM | A549 66.5 µM | NCI-H226 > 100 µM | HOP-92 > 100 µM | OVCAR-8 32.7 µM | OVCAR-3 28.3 µM | T47D 33.1 µM | SK-MEL-28 40.4 µM | NCI-H460 36.3 µM | SK-MEL-2 39 µM

Cc1ccccc1/N=N/c1cc(C)c(/N=N/c2c(O)ccc3ccccc23)cc1C
inactive: HT-29 > 100 µM | HCT-116 > 100 µM | RPMI-8226 > 100 µM | SNB-19 > 100 µM | EKVX > 100 µM | MDA-MB-435 > 100 µM | KM12 > 100 µM | HOP-62 > 100 µM | A549 > 100 µM | CCRF-CEM > 100 µM | NCI-H226 > 100 µM | HOP-92 > 100 µM | OVCAR-8 > 100 µM | OVCAR-3 > 100 µM | T47D > 100 µM | SK-MEL-28 > 100 µM | SK-MEL-2 > 100 µM

CC(C)=Cc1cc(CCC/C(C)=C/Cc2c(O)cc(C)c(C(=O)O)c2O)co1
inactive: HT-29 > 100 µM | HCT-116 > 100 µM | RPMI-8226 26.1 µM | SNB-19 > 100 µM | EKVX > 100 µM | MDA-MB-435 > 100 µM | KM12 > 100 µM | HOP-62 > 100 µM | A549 > 100 µM | CCRF-CEM 32.1 µM | HOP-92 > 100 µM | OVCAR-8 84.9 µM | OVCAR-3 > 100 µM | HCC 2998 > 100 µM | T47D 67.1 µM | SK-MEL-28 > 100 µM | NCI-H460 > 100 µM | SK-MEL-2 > 100 µM

CC(O)CNC1=CC(=O)C(=O)c2ccccc21 (stereo not given)
inactive: HCT-116 16.1 µM | RPMI-8226 18.2 µM | SNB-19 16.7 µM | EKVX 18.6 µM | MDA-MB-435 11.3 µM | KM12 19.2 µM | HOP-62 18.2 µM | A549 19 µM | CCRF-CEM 37.9 µM | HOP-92 19.5 µM | OVCAR-3 3 µM | HCC 2998 11.7 µM | T47D 20.9 µM | SK-MEL-28 19 µM | NCI-H460 14.3 µM | SK-MEL-2 16.4 µM

CSc1ccc(/C=C2\N=C(c3ccccc3)N(/N=C/c3cc4cc(C)ccc4nc3Cl)C2=O)cc1
inactive: HT-29 23.1 µM | HCT-116 13.6 µM | RPMI-8226 27.6 µM | SNB-19 16.7 µM | EKVX 32.4 µM | MDA-MB-435 8.15 µM | KM12 14.3 µM | HOP-62 33.2 µM | A549 19.5 µM | CCRF-CEM 12 µM | HOP-92 17.9 µM | OVCAR-8 16.1 µM | OVCAR-3 19.5 µM | HCC 2998 16 µM | T47D 22.9 µM | SK-MEL-28 18.2 µM | NCI-H460 20.7 µM | SK-MEL-2 16.8 µM

C#CCn1c(=O)c(C)cn(/C(=C\C(=O)OCC)C(=O)OCC)c1=O
active: CCRF-CEM 0.435 µM
inactive: HT-29 1.72 µM | HCT-116 3.34 µM | RPMI-8226 2.8 µM | SNB-19 19.7 µM | EKVX 6.43 µM | MDA-MB-435 5.16 µM | KM12 30.1 µM | HOP-62 20.5 µM | A549 20 µM | NCI-H226 17.1 µM | HOP-92 2.12 µM | OVCAR-8 3.05 µM | OVCAR-3 6.17 µM | T47D 2.65 µM | SK-MEL-28 2.03 µM | NCI-H460 2.2 µM | SK-MEL-2 16.2 µM

Cn1c2ccccc2c2c3c(c4c5ccccc5n(C)c4c21)C(=O)N(Cc1ccccc1)C3=O
inactive: HT-29 > 100 µM | HCT-116 > 100 µM | RPMI-8226 > 100 µM | SNB-19 > 100 µM | EKVX > 100 µM | MDA-MB-435 > 100 µM | KM12 > 100 µM | HOP-62 19.3 µM | A549 90.2 µM | CCRF-CEM > 100 µM | NCI-H226 > 100 µM | HOP-92 > 100 µM | OVCAR-8 > 100 µM | HCC 2998 > 100 µM | T47D > 100 µM | SK-MEL-28 > 100 µM | NCI-H460 > 100 µM | SK-MEL-2 > 100 µM

COc1ccc(/C=C/c2cc(OC)c(OC)c(OC)c2)cc1O[Si](C)(C)C(C)(C)C
inactive: HT-29 37.9 µM | HCT-116 2.77 µM | SNB-19 3.44 µM | EKVX 5.81 µM | MDA-MB-435 2.26 µM | HOP-62 5.93 µM | A549 14 µM | NCI-H226 5.19 µM | HOP-92 15.6 µM | OVCAR-8 2.74 µM | HCC 2998 43.5 µM | T47D 18.7 µM | SK-MEL-28 25.1 µM | NCI-H460 4.15 µM | SK-MEL-2 7.8 µM
active: RPMI-8226 0.0494 µM

Cc1ccc(-c2nc(-c3cnccn3)n(C3OC(CO)C(O)C(O)C3O)n2)cc1 (stereo not given)
inactive: HT-29 > 100 µM | HCT-116 > 100 µM | RPMI-8226 > 100 µM | SNB-19 > 100 µM | EKVX > 100 µM | MDA-MB-435 > 100 µM | KM12 > 100 µM | HOP-62 > 100 µM | A549 > 100 µM | CCRF-CEM > 100 µM | HOP-92 > 100 µM | OVCAR-8 > 100 µM | OVCAR-3 > 100 µM | HCC 2998 > 100 µM | T47D > 100 µM | SK-MEL-28 > 100 µM | NCI-H460 > 100 µM

CCNC(=O)OCC1C2=C(C(=O)C(C)=C(N)C2=O)N2CC3C(N3C)C12OC (stereo not given)
active: NCI-H460 0.18 µM
inactive: HT-29 18.5 µM | HCT-116 14.6 µM | RPMI-8226 14.4 µM | SNB-19 24 µM | EKVX > 94.2 µM | MDA-MB-435 75.7 µM | HOP-62 6.44 µM | A549 5.11 µM | CCRF-CEM 4.21 µM | NCI-H226 > 87.7 µM | HOP-92 > 75 µM | OVCAR-8 21.7 µM | OVCAR-3 21.9 µM | HCC 2998 14.6 µM | T47D 55.2 µM | SK-MEL-28 > 81.7 µM | SK-MEL-2 30.3 µM

COC(=O)C1CCC(=S)N1C(=O)c1ccccc1 (stereo not given)
inactive: HT-29 > 100 µM | HCT-116 > 100 µM | RPMI-8226 > 100 µM | SNB-19 > 100 µM | EKVX 87.3 µM | MDA-MB-435 > 100 µM | KM12 > 100 µM | HOP-62 > 100 µM | A549 > 100 µM | CCRF-CEM > 100 µM | HOP-92 > 100 µM | OVCAR-8 > 100 µM | OVCAR-3 > 100 µM | HCC 2998 77.6 µM | T47D > 100 µM | SK-MEL-28 > 100 µM | NCI-H460 40.6 µM | SK-MEL-2 > 100 µM

CC(=O)NC1C(OCc2ccccc2)OC(CO)C(O)C1OCC(=O)N1CCCC1C(=O)N[C@@H](CCC(=O)NCCCCNc1c2ccccc2nc2cccc([N+](=O)[O-])c12)C(N)=O (stereo not given in full)
inactive: HT-29 16.7 µM | HCT-116 22.9 µM | RPMI-8226 2.64 µM | SNB-19 17.7 µM | EKVX 43.3 µM | MDA-MB-435 18 µM | KM12 31.3 µM | HOP-62 37.9 µM | A549 16 µM | NCI-H226 74 µM | HOP-92 9.33 µM | OVCAR-8 31 µM | OVCAR-3 21.6 µM | HCC 2998 16.1 µM | T47D 27.4 µM | SK-MEL-28 81.8 µM | NCI-H460 21 µM | SK-MEL-2 15.4 µM
